{"source": "patent US20220389109A1", "about": "“Management of conditions other than multiple sclerosis in ofatumumab-treated patients” (Novartis AG, priority 2019, published 2022)", "key": {"total immunoglobulins": {"system": "total immunoglobulins", "conditions": "over the controlled period of the studies, mainly driven by reduction in IgM; cited from earlier work"}, "[1]": {"system": "IgG, B-cell subtypes, adverse events", "conditions": "human, in vivo", "method": "MS patients are treated with either ofatumumab or Ocrevus (ocrelizumab). Selected patients having psoriatic arthritis are monitored under a special study program. […] Some of them cannot take a disease-modifying antirheumatic drugs (DMARD) such as • Leflunomide (Arava), • Methotrexate (Otrexup, Rasuvo, Rheumatrex, Trexall) or • Sulfasalazine (Azulfidine).\nThus, they are treated with an immunosuppressant, i.e. one of • Azathioprine (Imuran, Azasan) or • Cyclosporine (Gengraf, Neoral, Sandimmune)."}, "[2]": {"system": "serum immunoglobulin (IgG)", "conditions": "cited from earlier work"}, "MS patients": {"system": "MS patients", "conditions": "cited from earlier work; for reduction in annualized relapse rate compared to teriflunomide: p<0.001"}, "[3]": {"system": "(total) IgG, B-cell subtypes", "conditions": "human, in vivo", "method": "Ofatumumab is administered s.c. to RRMS patients. If injection-related reactions occurs, symptomatic treatment is provided. For patients who experienced pain, redness or itching, hydrocortisone cream is applied after the injection to help with itching, redness and swelling. A pain reliever is also be used."}, "[4]": {"system": "Immunoglobulin G, Plasma/Serum", "design": "species or system human", "conditions": "in vivo", "method": "(§1) ASCLEPIOS I and II are double-blind, double-dummy, active comparator-controlled, parallel-group, innovative, adaptive design, multicentre trials. Patients were randomised (1:1) to receive either ofatumumab 20 mg sc injections every 4 weeks (after an initial loading regimen of 20 mg sc doses on Days 1, 7 and 14) or teriflunomide 14 mg orally once daily, for up to 30 months. The studies have flexible durations, with termination occurring in the blinded core treatment epoch according to pre-specified criteria. Patients aged 18-55 years with an Expanded Disability Status Scale (EDSS) score (according to Kurtzke, Neurology. 1983, November; 33(11): 1444-52) of 0-5.5 at screening who experienced ≥1 relapse in the past year or ≥2 relapses in the past 2 years or a positive gadolinium-enhancing (Gd+) MRI scan during the year before randomisation were included.\n(§2) Serum IgG/IgM levels were monitored at baseline, Week (W) 4, W12 and every 12 weeks, see FIG. 1. […] Reference is made to FIG. 1.\n• At each visit-window, only patients with a value at both Baseline and that visit-window are included."}, "[5]": {"design": "species or system human", "conditions": "in vivo", "method": "as §1, §2"}, "[6]": {"system": "urinary tract infections, B-cell subtypes", "conditions": "human, in vivo", "text": "A first group of patients is monitored after an ischemic stroke. A sub-group of the patients are expected to have difficulty with urinary leakage or are not able to empty their bladder completely because of muscle weakness. For these reasons, a catheter will be placed inside the bladder. However, there is an increased risk of urinary tract infections related to the use of a catheter. These infections will be treated with one of • Trimethoprim/sulfamethoxazole (Bactrim, Septra, others), • Fosfomycin (Monurol), • Nitrofurantoin (Macrodantin, Macrobid), • Cephalexin (Keflex) or • Ceftriaxone.\nA second group of patients consists of ofatumumab-treated MS patients. A sub-group of the patients develops adverse events, including urinary tract infections. These infections are treated with one of • Trimethoprim/sulfamethoxazole (Bactrim, Septra, others), • Fosfomycin (Monurol), • Nitrofurantoin (Macrodantin, Macrobid), • Cephalexin (Keflex) or • Ceftriaxone."}, "[7]": {"system": "total B cells (CD19+ CD45+), CD20+ CD3+ T cells", "assay": "APLIOS Phase 2 study: B and T-cell subsets in blood by FACS", "type": "in vivo, human", "conditions": "20 mg s.c.", "method": "APLIOS was a 12-week, open-label, Phase 2 bioequivalence study. Patients received ofatumumab 20 mg (0.4 mL) s.c. loading doses on Days 1, 7 and 14, and maintenance doses every 4 weeks from Week 4 via a prefilled syringe or an autoinjector pen (SensoReady). Changes in B and T-cell subsets were analysed longitudinally in blood samples of a group of patients using fluorescence-activated cell sorting (FACS)."}, "IgM": {"system": "IgM", "conditions": "in vivo; cited from earlier work"}}, "note": "Like-named read-outs stand apart in the source and are kept apart here."}
{"substance": "ocrelizumab", "values": [{"measurement": "change in total immunoglobulins", "setting": "total immunoglobulins", "result": "decrease in total immunoglobulins"}, {"measurement": "adverse events (e.g. infections) after treatment with the immunosuppressant", "setting": "[1]", "result": "significantly more adverse events"}, {"measurement": "reduction of IgG levels", "setting": "[2]; after two years (96 weeks), pooled OPERA", "result": "approx. 5%"}, {"measurement": "reduction in serum Ig levels, approximate mean rate", "setting": "[2]; assessed over 5.5 years", "result": "3-4 % per year"}]}
{"substance": "ofatumumab", "values": [{"measurement": "reduction in annualized relapse rate compared to teriflunomide", "setting": "MS patients; ASCLEPIOS I", "result": 50.5, "unit": "%"}, {"measurement": "reduction in annualized relapse rate compared to teriflunomide", "setting": "MS patients; ASCLEPIOS II", "result": 58.5, "unit": "%"}, {"measurement": "suppression of gadolinium (Gd) T1 lesions compared to Aubagio", "setting": "MS patients; in vivo", "result": "highly significant suppression"}, {"measurement": "relative risk reduction in 6-month CDP versus Aubagio", "setting": "MS patients; pre-specified pooled analyses, p=0.012", "result": 32.5, "unit": "%"}, {"measurement": "combined immunosuppression or toxicity of ofatumumab and hydrocortisone", "setting": "[3]", "result": "no evidence"}, {"measurement": "follicular B-cell subtype", "setting": "[3]", "result": "marked decrease"}, {"measurement": "marginal zone and germinal center B-cell subtypes", "setting": "[3]", "result": "less affected"}, {"measurement": "level of (total) IgG in patients with injection-related reactions versus without reactions and hydrocortisone", "setting": "[3]; sc", "result": "comparable"}, {"measurement": "follicular B-cell subtype", "setting": "[1]", "result": "marked decrease"}, {"measurement": "level of IgG versus Ocrevus-treated patients", "setting": "[1]", "result": "significantly higher"}, {"measurement": "marginal zone and germinal center B-cell subtypes", "setting": "[1]", "result": "less affected"}, {"measurement": "IgG decrease as compared with teriflunomide-treated patients", "setting": "[4]", "result": "less pronounced and shorter"}, {"measurement": "turning point at which the trend of decreasing IgG levels reverses", "setting": "[4]", "result": 36, "unit": "week"}, {"measurement": "incidence of infections", "setting": "[5]", "result": "Advantageous low incidence"}, {"measurement": "follicular B-cell subtype", "setting": "[6]", "result": "marked decrease"}, {"measurement": "management of urinary tract infections", "setting": "[6]", "result": "No significant difference"}, {"measurement": "marginal zone and germinal center B-cell subtypes", "setting": "[6]", "result": "less affected"}, {"measurement": "depletion of CD20+ CD3+ T cells", "setting": "[7]", "result": "rapidly and potently depleted"}, {"measurement": "depletion of memory B cells (CD19+ CD45+ CD27+) compared with naïve B cells", "setting": "[7]", "result": "more efficient depletion"}, {"measurement": "median total B-cell levels", "setting": "[7]; by Day 7 through Day 14 of the loading regimen, maintained for remaining study duration", "result": "≤ 5", "unit": "cells/μL"}, {"measurement": "depletion in total B cells (CD19+ CD45+)", "setting": "[7]; measured on Day 4 and Day 7", "result": "rapid and sustained depletion"}]}
{"substance": "rituximab", "values": [{"measurement": "effect on IgM levels", "setting": "IgM", "result": "depression of IgM levels"}]}
